Experimental data reported in PubChem BioAssay (NCI).
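Results reflect a 48-hour exposure of cells in 96-well plates to compound at five concentrations. TGI: concentration producing complete growth inhibition.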

Assays:
Assay in all cases: DTP human tumour cell line panel, 48 h
HCC-2998 colon = tested on: HCC-2998 colon
CCRF-CEM leukemia = tested on: CCRF-CEM leukemia
EKVX NSCLC = tested on: EKVX NSCLC
OVCAR-5 ovarian = tested on: OVCAR-5 ovarian
A549 NSCLC = tested on: A549 NSCLC
KM12 colon = tested on: KM12 colon
K-562 leukemia = tested on: K-562 leukemia
SR leukemia = tested on: SR leukemia
TK-10 renal = tested on: TK-10 renal
HS 578T breast = tested on: HS 578T breast
T-47D breast = tested on: T-47D breast
OVCAR-3 ovarian = tested on: OVCAR-3 ovarian
SN12C renal = tested on: SN12C renal
MDA-MB-231 breast = tested on: MDA-MB-231 breast
MALME-3M melanoma = tested on: MALME-3M melanoma
M14 melanoma = tested on: M14 melanoma
786-0 renal = tested on: 786-0 renal
OVCAR-8 ovarian = tested on: OVCAR-8 ovarian
MCF7 breast = tested on: MCF7 breast
NCI-H226 lung = tested on: NCI-H226 lung

SMILES	TGI (HCC-2998 colon) [µM]	TGI (CCRF-CEM leukemia) [µM]	TGI (EKVX NSCLC) [µM]	TGI (OVCAR-5 ovarian) [µM]	TGI (A549 NSCLC) [µM]	TGI (KM12 colon) [µM]	TGI (K-562 leukemia) [µM]	TGI (SR leukemia) [µM]	TGI (TK-10 renal) [µM]	TGI (HS 578T breast) [µM]	TGI (T-47D breast) [µM]	TGI (OVCAR-3 ovarian) [µM]	TGI (SN12C renal) [µM]	TGI (MDA-MB-231 breast) [µM]	TGI (MALME-3M melanoma) [µM]	TGI (M14 melanoma) [µM]	TGI (786-0 renal) [µM]	TGI (OVCAR-8 ovarian) [µM]	TGI (MCF7 breast) [µM]	TGI (NCI-H226 lung) [µM]
CN(C)/C=C/c1c2c(nc3ccccc13)C(=O)c1cccnc1C2=O	2.6	9.28	22.9	3.95	2.59	1.56	3.75	0.907	4.03	4.65	21.6	1.09	2.57	> 100	2.26	0.597	1.33	3.2		
COc1ccc(/C=C2/SC(=Nc3ccccc3)N(NC(=O)Cc3ccccc3)C2=O)c(OC)c1	> 100	> 100	> 100	> 100	> 100	> 100	> 100		> 100	> 100	> 100	> 100	> 100	> 100		> 100	> 100	> 100	> 100	> 100
CSc1nc(-c2ccccc2)nc(C(C#N)C#N)n1	> 100	> 100	> 100	> 100	> 100	> 100			> 100	> 100	> 100	> 100	> 100	> 100	> 100	> 100	> 100	> 100	> 100	> 100
O=C1NC(=O)C(C(c2ccc([N+](=O)[O-])cc2)C2C(=O)NC(=O)NC2=O)C(=O)N1		> 100		> 100	> 100	> 100	> 100		> 100	> 100	> 100	> 100	> 100	> 100	> 100	> 100	> 100	> 100	> 100	> 100
Cc1oc2nc(N(C)C)nc(NN)c2c1C	> 100	> 100	> 100	> 100	> 100	> 100	> 100		> 100	> 100	> 100	> 100	> 100	> 100		> 100	> 100	> 100		> 100
Cc1c(C(=O)Nc2ccccc2)nnn1-c1ccnc2cc(C(F)(F)F)ccc12	> 100	81.5	> 100	> 100	> 100	> 100	> 100		> 100	> 100	> 100	> 100	> 100	> 100	> 100	> 100	> 100	> 100	> 100	> 100
COc1ccccc1/C=N/Nc1nnc2c3ccccc3c3ncccc3c2n1	> 100	78	> 100	> 100	> 100	> 100	> 100	> 100	> 100	> 100	> 100	> 100	> 100	> 100	> 100	> 100	90.6	> 100	> 100	
Cc1cn(C2CC(N=[N+]=[N-])C(CO)O2)c(=O)n(CCCCBr)c1=O (stereo not drawn)	> 100	> 100	> 100	> 100	> 100	> 100	> 100		> 100	> 100	> 100	> 100	> 100	> 100	> 100	> 100	> 100	> 100	> 100	> 100
CCCCc1nc(C)oc1C(C)C	> 100	> 100	> 100	> 100	> 100	> 100	> 100		> 100	> 100	> 100	> 100	> 100	> 100	> 100	> 100	> 100	> 100	> 100	> 100
Oc1ccc(C2Oc3cc(O)cc4c3C2c2cc(O)cc3c2C(c2cc(O)cc5c2C4C(c2ccc(O)cc2)O5)C(c2ccc(O)cc2)O3)cc1 (stereo not drawn)	> 25	> 25	> 25	> 25	> 25	> 25	> 25	> 25	> 25			> 25	> 25		20.7	> 25	> 25	22.8		17.3
CC[C@]1(Cc2ccc(OC)c(OC)c2)C2CC(C(=O)OC)ON2O[C@H](OCc2ccccc2)[C@@H]1OC(C)=O (stereo partly drawn)	> 100	> 100	> 100	> 100	> 100	> 100	> 100	> 100	> 100		> 100	> 100	> 100	> 100	> 100	> 100	> 100	> 100	> 100	> 100
Cc1ccc2nc(CN(CCO)CCO)cc(=O)n2c1	> 100	> 100	> 100	> 100	> 100	> 100	> 100	> 100	> 100	> 100		> 100	> 100	> 100	> 100	> 100	> 100	> 100	> 100	> 100
Cc1nn(C(=O)Cc2ccccc2)c2c1C(c1ccc([N+](=O)[O-])cc1)SC(N)=N2 (stereo not drawn)	> 100	> 100	> 100		> 100	> 100	> 100	> 100	> 100	> 100	> 100		> 100	> 100	> 100	> 100	> 100	> 100	> 100	
C=CCCCN1CCCCC1=S	> 100	> 100	> 100	> 100	> 100	> 100	> 100	> 100	> 100			> 100	> 100		> 100	> 100	> 100	> 100		> 100
NNC(=O)CC(=O)Nc1ccc(S(=O)(=O)c2ccc(NC(=O)CC(=O)NN)cc2)cc1	> 100	> 100	> 100	> 100	> 100	> 100	> 100		> 100	> 100	> 100	> 100	> 100	> 100		> 100	> 100	> 100		> 100
O=C1c2cn[nH]c2N=C(Nc2ccccc2)C1N=Cc1ccc([N+](=O)[O-])cc1 (stereo not drawn)	> 10	> 10	> 10	> 10	> 10	> 10	> 10	> 10	> 10	> 10		> 10	> 10		> 10	> 10	> 10	> 10	> 10	> 10
COn1oc(=O)c2ccccc21	> 100	> 100	> 100	> 100	> 100	> 100	> 100		> 100	> 100		> 100	> 100	> 100	> 100	> 100	> 100	> 100	> 100	> 100
O=C(Nc1ccccc1)c1cc(S(=O)(=O)N2CCNC2=O)c(S)cc1Cl	> 100	> 100	> 100	> 100	> 100	> 100	> 100	> 100	> 100	> 100	> 100	> 100	> 100	> 100		> 100	> 100	> 100	> 100	
CN1N=C2c3ccccc3OC(c3ccccc3)[C@H]2C1c1ccccc1 (stereo partly drawn)	> 100	> 100	> 100	> 100	> 100	> 100	> 100	> 100	> 100			> 100	> 100		78.3	> 100	> 100	> 100		> 100
C#CC(C)(C)OCCCCOc1cc(O)c2c(=O)c3ccccc3n(C)c2c1	> 100	> 100	> 100	> 100	> 100	> 100	> 100	> 100	> 100			> 100	> 100		> 100	> 100	> 100	> 100		> 100
O=C(O)c1ccccc1/C=C1/Cc2ccc3c(c2C1=O)CCC3	72.1	> 100	> 100	> 100	> 100	> 100	> 100	91.3	> 100	> 100	> 100	95.2	> 100		> 100	> 100	> 100	> 100	> 100	90.8
CCOC(=O)/C(=C\c1cn(C(C)=O)c2ccccc12)P(C)(=O)OCC (stereo not drawn)	94.3	> 100	> 100	> 100	> 100	> 100	> 100	> 100			> 100	> 100	> 100	81.7	> 100	> 100	> 100	> 100	> 100	
CNC(=O)N1CN(c2ccccc2)C2(CCN(Cc3ccccc3)CC2)C1=O	39.8	> 100	> 100	64.1	> 100	> 100	> 100	52.3	> 100		11	> 100	> 100	> 100	> 100	> 100	> 100	> 100	> 100	> 100
C/C=C\C(CC(=O)NCCC1CN(C(=O)OCc2ccccc2)c2ccccc21)CC(=O)OC (stereo not drawn)	> 100	> 100	> 100	> 100	> 100	> 100	> 100		> 100	> 100		> 100		> 100	> 100	> 100	> 100	> 100	> 100	
CC(C)(C)OC(=O)NCCC1CNc2ccccc21 (stereo not drawn)	> 100		> 100	> 100	> 100	> 100	> 100		> 100	> 100	> 100	> 100		> 100	> 100	> 100	> 100	> 100	> 100	
Cc1cc(C#N)c(Nc2ccc(F)cc2[N+](=O)[O-])s1	> 100	> 100	> 100	> 100	> 100	> 100	> 100	> 100			> 100	> 100	> 100	68.8	> 100	> 100	> 100	> 100		> 100
